The target in one assay is T1, human Kv1.5 (Homo sapiens, UniProt P22460).
T1 construct: expressed in transfected cells; host or cells: stably transfected cells
The assay is described as follows: Kv1.5 Autopatch Electrophysiology. The class given is cell-based. To be noted: 1 μM compound; CHO cells stably transfected with human Kv1.5; AutoPatch whole cell mode; room temperature; read-out: Kv 1.5% Inhibition at 1 μM. How it is done:
Kv1.5 Autopatch Electrophysiology Method
Cells stably transfected with cDNA for human Kv1.5 (in pEF6::VA-His-TOPO) were grown in Ex-cell 302 serum-free medium for CHO cells, supplemented with 10 μl/ml [100×] glutamine, 5 μg/ml blasticidin and 1% HT supplement (50×, hypoxanthine and thymidine). Compounds were tested on these cells using the AutoPatch technology in whole cell mode.
The external bathing solution contained (in mM): 150 NaCl, 10 KCl, 1 MgCl2, 3 CaCl2, 10 HEPES, pH 7.4 with NaOH. Patch pipettes were filled with an electrode solution of composition (in mM): 160 KCl, 0.5 MgCl2, 10 HEPES, 1 EGTA, pH 7.4 with KOH.
(§1) Compounds were dissolved in DMSO (100%) and made up in the external bather at a concentration of 1 μM. All experiments were conducted at room temperature (22-24° C.).
(§2) A cell suspension (10 ml), with a density of 100,000 cells/ml, was aliquoted into a 15 ml centrifuge tube and transferred to an incubator (37° C., 5% CO2) for approximately one hour before use. Following 60 min incubation, a tube was taken and centrifuged at 1000 rpm for 4 mins at room temperature. 9.5 ml supernatant was thence discarded, leaving a cell pellet at the bottom of the tube. The pellet was then resuspended using 100 μl of cold (4° C.), filtered (0.22 μm), 0.2% BSA/bather solution (0.02 g BSA/10 ml bather). The bottom of the tube was manually agitated gently until the solution became cloudy with cells. The 100 μl cell resuspension solution was then stored on the bench at 4° C. (using a Peltier-based temperature control device) until used.
(§3) A length of capillary glass (1B150F-4, WPI) was dipped into the cell suspension solution, such that ˜3 cm column of fluid was taken up by capillary action. A Ag/AgCl wire was dropped into the non-dipped end of the capillary also. The outside of the solution-filled end of the capillary was then dried and the capillary was loaded into the AutoPatch™. Borosilicate glass patch pipettes (from 1.5 mm OD, thin-walled filamented, GC150-TF capillary glass, Harvard) were pulled using a DMZ pipette puller (Zeitz Instruments), and were back-filled using the internal pipette solution, being careful that no bubbles remain at the tip or in the body of the pipette. Patch pipettes typically had resistances of 2.3-3.5 MΩ. Once filled, the pipette tip and a proportion of the shaft (˜15 mm) were dipped into Sigmacote (Sigma). The recording pipette was then loaded into the AutoPatch™. Automated patch-clamping was initiated by the operator, but thereafter AutoPatch.exe continued the experiment providing that pre-set conditions and criteria were satisfied.
(§4) Whole cell patch-clamp recordings were made using the AutoPatch™ rig, which incorporated an EPC9 or EPC10 amplifier (HEKA, Germany) under control of Pulse software (v8.54 or v8.76, HEKA, Germany), a motion controller with 2 translators (Newport, UK), valve controller (VF1) and a c-level suction device all at room temperature (22-24° C.). This equipment was completely under the control of AutoPatch.exe and operator intervention was only made when there was a requirement to refill the drug reservoirs or to prevent the loss of a cell due to a technical error. Cells with an Rseries greater than 18 MΩ were discounted from the experiment.
Qualification stages prior to perfusion and drug application ensured that the observed current met the criteria for the experiment. Only those cells with an IK>500 pA were used for experiments. Cells were continuously perfused with external solution at a flow rate of 1.8-2 ml/minute. […] Online analysis of the hKv1.5 current during the application of compounds was performed by the AutoPatch™ software. Voltage-step protocols and analysis of data was performed as described for conventional electrophysiology.
(§5) Electrophysiology voltage-step protocols and analysis of data was performed as follows. Data was sampled at 5 kHz, and filtered with a −3 dB bandwidth of 2.5 kHz. Cells were held at a voltage of −80 mV. […]

The target of a further assay is T2, human Kv1.3 (Homo sapiens, UniProt P22001).
T2 construct: expressed in transfected cells; host or cells: stably transfected cells
T2 sequence (P22001 whole entry): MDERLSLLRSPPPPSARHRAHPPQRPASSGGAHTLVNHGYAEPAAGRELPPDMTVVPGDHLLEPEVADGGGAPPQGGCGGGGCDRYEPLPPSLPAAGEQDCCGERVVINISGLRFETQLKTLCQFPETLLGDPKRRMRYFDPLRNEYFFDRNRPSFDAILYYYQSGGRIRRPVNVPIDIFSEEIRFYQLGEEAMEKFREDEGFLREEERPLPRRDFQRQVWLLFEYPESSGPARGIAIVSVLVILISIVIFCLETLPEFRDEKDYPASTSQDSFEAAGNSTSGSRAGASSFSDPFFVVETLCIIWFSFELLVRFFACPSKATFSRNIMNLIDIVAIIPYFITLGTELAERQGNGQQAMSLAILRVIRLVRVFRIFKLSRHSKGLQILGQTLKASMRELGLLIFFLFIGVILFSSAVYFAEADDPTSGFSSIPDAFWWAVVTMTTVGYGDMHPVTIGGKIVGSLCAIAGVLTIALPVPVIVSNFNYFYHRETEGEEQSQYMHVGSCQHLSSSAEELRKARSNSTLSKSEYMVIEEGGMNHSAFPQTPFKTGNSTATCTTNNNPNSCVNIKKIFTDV
Description: Kv1.3 Autopatch Electrophysiology. To be noted: 1 μM compound; CHO cells stably transfected with human Kv1.3; AutoPatch whole cell mode; room temperature; read-out: Kv 1.3% Inhibition at 1 μM. The class given is cell-based. As to the method: Kv1.3 Autopatch Electrophysiology Method
Cells stably transfected with cDNA for human Kv1.3 (in pcDNA3.1) were grown in Ex-cell 302 serum-free medium for CHO cells, supplemented with 10 μl/ml [100×] glutamine, 500 μg/ml G418 ([…]), and 1% HT supplement (50×, hypoxanthine and thymidine). Compounds were tested on these cells using the AutoPatch technology in whole cell mode.
The external bathing solution contained (in mM): 150 NaCl, 10 KCl, 1 MgCl2, 3 CaCl2, 10 HEPES, pH 7.4 with NaOH. Patch pipettes were filled with an electrode solution of composition (in mM): 100 K-Gluconate, 20 KCl, 1 MgCl2, 1 CaCl2, 10 HEPES, 11 EGTA, 5 ATP—Na2, 2 Glutathione pH 7.2 with KOH.
as §1, §2, §3, §4
Qualification stages prior to perfusion and drug application ensured that the observed current met the criteria for the experiment. Only those cells with an IK>400 pA were used for experiments. Cells were continuously perfused with external solution at a flow rate of 1.8-2 ml/minute. […] Online analysis of the hKv1.3 current during the application of compounds was performed by the AutoPatch™ software. Voltage-step protocols and analysis of data was performed as described for conventional electrophysiology.
as §5

As a reminder, the inhibition is the drop in the measured response relative to a control, in per cent.

T1 sequence (P22460 whole entry): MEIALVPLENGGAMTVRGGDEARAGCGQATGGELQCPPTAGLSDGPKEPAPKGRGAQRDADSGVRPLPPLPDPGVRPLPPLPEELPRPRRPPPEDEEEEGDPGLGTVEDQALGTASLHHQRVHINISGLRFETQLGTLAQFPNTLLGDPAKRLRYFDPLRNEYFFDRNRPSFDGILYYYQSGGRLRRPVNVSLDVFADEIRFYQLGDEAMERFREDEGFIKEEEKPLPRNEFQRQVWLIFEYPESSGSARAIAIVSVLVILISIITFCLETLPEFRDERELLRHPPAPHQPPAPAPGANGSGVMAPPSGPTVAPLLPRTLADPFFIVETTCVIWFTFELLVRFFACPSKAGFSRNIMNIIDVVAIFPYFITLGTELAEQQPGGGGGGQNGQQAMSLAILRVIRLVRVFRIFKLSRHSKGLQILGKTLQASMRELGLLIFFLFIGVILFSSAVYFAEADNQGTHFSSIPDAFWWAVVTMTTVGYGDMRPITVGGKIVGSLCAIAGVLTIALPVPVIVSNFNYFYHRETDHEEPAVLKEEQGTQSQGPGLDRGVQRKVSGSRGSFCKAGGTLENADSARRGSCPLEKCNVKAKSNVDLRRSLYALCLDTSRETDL

For `Cc1ccc(-c2csc3c(-c4ccncc4)cnc(NCc4ccccc4)c23)cc1` [Example 40, Benzyl-(7-pyridin-4-yl-3-p-tolyl-thieno[3,2-c]pyridin-4-yl)-amine], the inhibition at 1 µM at human Kv1.5 was found to be 36.3%; on human Kv1.3 it was 49.9%.

As for `Cc1ccc(-c2csc3ccnc(NCc4ccco4)c23)cc1` [Example 29, Furan-2-ylmethyl-(3-p-tolyl-thieno[3,2-c]pyridin-4-yl)-amine], the values for the inhibition at 1 µM on human Kv1.5 and at human Kv1.3 were 86.1% and 66.2%, respectively.

As to `Fc1ccc(-c2csc3ccnc(NCc4ccc5c(c4)OCCO5)c23)cc1` [Example 17, (2,3-Dihydro-benzo[1,4]dioxin-6-ylmethyl)-[3-(4-fluoro-phenyl)-thieno[3,2-c]pyridin-4-yl]-amine], the figures for the inhibition at 1 µM on human Kv1.5 and on human Kv1.3 were 86.1% and 59.6%, respectively.

Consider `COc1cccc(-c2csc3ccnc(NCc4ccco4)c23)c1` [Example 28, Furan-2-ylmethyl-[3-(3-methoxy-phenyl)-thieno[3,2-c]pyridin-4-yl]-amine], for which the inhibition at 1 µM on human Kv1.5 was determined as 91.9%; on human Kv1.3, 72.7%.

`Cc1ccc(-c2cnc(NCc3ccccc3)c3c(-c4ccc(C)cc4)csc23)cc1` [Example 33, Benzyl-(3,7-di-p-tolyl-thieno[3,2-c]pyridine-4-yl)-amine]: the inhibition at 1 µM on human Kv1.5 is 39.2%; at human Kv1.3 it was 24.4%.

With `c1ccc(CNc2nccc3scc(-c4ccc5c(c4)OCO5)c23)cc1` [Example 25, (3-Benzo[1,3]dioxol-5-yl-thieno[3,2-c]pyridin-4-yl)-benzyl-amine], the inhibition at 1 µM turned out to be 70.5% on human Kv1.5 and 58.1% at human Kv1.3.

Take `c1cc2scc(-c3ccc4c(c3)OCO4)c2c(NCc2ccc3c(c2)OCCO3)n1` [Example 20, (3-Benzo[1,3]dioxol-5-yl-thieno[3,2-c]pyridin-4-yl)-(2,3-dihydro-benzo[1,4]dioxin-6-ylmethyl)-amine]: the values for the inhibition at 1 µM at human Kv1.5 and on human Kv1.3 were 90.2% and 83.5%, respectively.

For the molecule `c1ccc(-c2csc3ccnc(NCc4ccccn4)c23)cc1` [Example 12, (3-Phenyl-thieno[3,2-c]pyridin-4-yl)-pyridin-2ylmethyl-amine], the figures for the inhibition at 1 µM on human Kv1.5 and at human Kv1.3 were 59.6% and 46.1%, respectively.

With `Cc1ccc(-c2csc3c(-c4ccccc4)cnc(NCc4ccccc4)c23)cc1` [Example 34, Benzyl-(7-phenyl-3-p-tolyl-thieno[3,2-c]pyridine-4-yl)-amine], the inhibition at 1 µM at human Kv1.5 is 25.6%; at human Kv1.3, 8.1%.

Regarding `Cc1ccc(-c2csc3c(-c4cccc(O)c4)cnc(NCc4ccccc4)c23)cc1` [Example 36, 3-(4-Benzylamino-3-p-tolyl-thieno[3,2-c]pyridin-7-yl)-phenol], the inhibition at 1 µM is 52.4% on human Kv1.5 and 15.5% at human Kv1.3.

As for `Cc1ccc(-c2csc3c(-c4cccnc4)cnc(NCc4ccccc4)c23)cc1` [Example 39, Benzyl-(7-pyridin-3-yl-3-p-tolyl-thieno[3,2-c]pyridin-4-yl)-amine], the inhibition at 1 µM stood at 90% at human Kv1.5 and 50.1% at human Kv1.3.

The record behind these values is patent publication US9216992B2, “Thieno[3,2-c]pyridine potassium channel inhibitors” (Xention Limited, priority 2005, dated 2015).
